Test results published in PubChem BioAssay (NCI).
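Tested at 5 concentrations; 48 h exposure; 96-well plates; endpoints linearly interpolated, else capped at highest concentration. Abbreviation: GI50, concentration required for 50% inhibition of growth. TGI: total growth inhibition.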

Legend:
Assay in all cases: NCI tumour cell line growth inhibition, 48 h
UACC-62 melanoma = test system: UACC-62 melanoma
SN12C renal = test system: SN12C renal
OVCAR-8 ovarian = test system: OVCAR-8 ovarian
SR leukemia = test system: SR leukemia
786-0 renal = test system: 786-0 renal
EKVX NSCLC = test system: EKVX NSCLC
RPMI-8226 leukemia = test system: RPMI-8226 leukemia
SK-OV-3 ovarian = test system: SK-OV-3 ovarian
UO-31 renal = test system: UO-31 renal
A549 NSCLC = test system: A549 NSCLC

SMILES | GI50 (UACC-62 melanoma) | TGI (UACC-62 melanoma) | GI50 (SN12C renal) | TGI (SN12C renal) | GI50 (OVCAR-8 ovarian) | TGI (OVCAR-8 ovarian) | GI50 (SR leukemia) | TGI (SR leukemia) | GI50 (786-0 renal) | TGI (786-0 renal) | GI50 (EKVX NSCLC) | TGI (EKVX NSCLC) | GI50 (RPMI-8226 leukemia) | TGI (RPMI-8226 leukemia) | GI50 (SK-OV-3 ovarian) | TGI (SK-OV-3 ovarian) | GI50 (UO-31 renal) | TGI (UO-31 renal) | GI50 (A549 NSCLC) | TGI (A549 NSCLC)
C#CCNCCN1C(=O)c2ccc3c4c(ccc(c24)C1=O)C(=O)N(CCNCC#C)C3=O | 1.71 µM | 6.68 µM | 2.62 µM | 9.32 µM | 2.25 µM | 20.8 µM | 4.53 µM | 29.8 µM | 6.1 µM | 26.5 µM | 5.93 µM | 13.6 µM | 10.6 µM | 43.2 µM | 6.3 µM | 22.6 µM | 3.09 µM | 12.3 µM | 2.69 µM | 11.6 µM
O=C(O)c1nc(-c2ccc(Cl)c(Cl)c2)nc2ccc(Cl)cc12 | – | > 100 µM | – | > 100 µM | – | > 100 µM | – | > 100 µM | – | > 100 µM | – | > 100 µM | – | > 100 µM | – | 43.3 µM | – | > 100 µM | – | > 100 µM
COc1cc(OC)c(C(=O)/C=C/c2cccc(C#N)c2)c(OC)c1 | 1.22 µM | 4.92 µM | 1.5 µM | 7.1 µM | 1.47 µM | 6.51 µM | 0.241 µM | > 50 µM | 1.31 µM | 5.52 µM | 1.37 µM | 5.32 µM | 0.981 µM | 4.31 µM | 1.82 µM | > 50 µM | 1.13 µM | 4.86 µM | 1.43 µM | 6.1 µM
Cc1cn2c(/C=C3/C(=O)Nc4ccc(O)cc43)c(C)nc2s1 | 1.16 µM | 11.4 µM | 3.79 µM | 41.4 µM | 10.4 µM | > 51.7 µM | 0.316 µM | 13.6 µM | 4.95 µM | > 100 µM | 12.9 µM | > 100 µM | 1.93 µM | > 20.6 µM | 3.8 µM | > 28.8 µM | 26.5 µM | > 100 µM | 19.9 µM | > 80.6 µM
O=C1NOC(c2ccc(O)cc2)(c2ccc(O)cc2)c2ccccc21 | > 100 µM | > 100 µM | > 100 µM | > 100 µM | > 100 µM | > 100 µM | > 100 µM | > 100 µM | > 100 µM | > 100 µM | > 100 µM | > 100 µM | > 100 µM | > 100 µM | > 100 µM | > 100 µM | > 100 µM | > 100 µM | > 100 µM | > 100 µM
Cc1[nH]c2ccc(F)cc2c1-c1nc2c3cccnc3c3ncccc3c2[nH]1 | 0.231 µM | 0.678 µM | 0.403 µM | > 100 µM | 0.345 µM | > 100 µM | 0.134 µM | > 100 µM | 0.327 µM | > 100 µM | 0.278 µM | > 100 µM | 3.43 µM | > 100 µM | 0.35 µM | > 100 µM | – | – | 0.701 µM | > 100 µM
